Test results from ChEMBL document CHEMBL5338756, “Dual-Acting Small Molecules: Subtype-Selective Cannabinoid Receptor 2 Agonist/Butyrylcholinesterase Inhibitor Hybrids Show Neuroprotection in an Alzheimer's Disease Mouse Model” (J Med Chem, 2023).
Where “and” joins values, the source holds several entries; their conditions need not be identical. Identical values can stand only once.

Columns and labels:
[1] = target: Cannabinoid receptor 1 (Rattus norvegicus) (UniProt P20272); test: Displacement of [3H]CP55940 from rat brain membrane CB1 receptor at 10 uM incubated for 3 hrs by scintillation counter analysis relative to control; type: cell membranes
[2] = target: T1, Cannabinoid receptor 2 (Homo sapiens, UniProt P34972)
Description: Displacement of [3H]CP55940 from human CB2 receptor expressed in HEK293 cell membrane incubated for 3 hrs by scintillation counter analysis

[3] = target: T2, Acetylcholinesterase (Homo sapiens, UniProt P22303)
[4] = target: T3, Cholinesterase (Homo sapiens, UniProt P06276)
[5] = target: T1, Cannabinoid receptor 2; remark: listed apart in the source
[6] = target: T1, Cannabinoid receptor 2; test: Agonist activity at human CB2 receptor stably expressed in CHO-K1 cells co-expressing Galphaq16 by Fluo-4AM dye based calcium mobilization assay relative to CP55940; type: functional, cell-based
[7] = target: T1, Cannabinoid receptor 2; remark: listed apart in the source
Description: Agonist activity at human CB2 receptor stably expressed in HEK293 cells assessed as induction of beta-arrestin 2 recruitment incubated for 2 hrs by luminescence based assay

[8] = target: T1, Cannabinoid receptor 2; test: Agonist activity at human CB2 receptor stably expressed in HEK293 cells assessed as induction of beta-arrestin 2 recruitment at 10 uM incubated for 2 hrs by luminescence based assay relative to CP55940; type: functional, cell-based; conditions: filed as agonist
[9] = target: T3, Cholinesterase; remark: listed apart in the source
[10] = target: T2, Acetylcholinesterase; remark: listed apart in the source
[11] = target: T1, Cannabinoid receptor 2; test: Displacement of [3H]CP55940 from human CB2 receptor expressed in HEK293 cell membrane at 10 uM incubated for 3 hrs by scintillation counter analysis relative to control; type: cell membranes
[12] = target: T1, Cannabinoid receptor 2; test: biochemical
Description: Displacement of [3H]CP55940 from human CB2 receptor stably expressed in HEK293 cells by Cheng-Prusoff equation analysis

[13] = system: Mus musculus; test: (§1) Synergistic neuroprotective activity against amyloid beta (25 to 35) induced Alzheimer's disease Swiss mouse model assessed as combination index at 0.1 to 1 mg/kg, ip administered once daily for day 1 to day 7 […] and measured on day 9 and 10 in presence of 2-benzyl-N,N-diethyl-1-isopentyl-1H-benzo[d]imidazole-5-carboxamide by step-through passive avoidance test; type: functional; conditions: dose 0.1-1 mg/kg
[14] = system: Mus musculus; test: as §1, with “0.1” for “0.1 to 1”, “8” for “9 and 10”, “spontaneous alternation performance” for “step-through passive avoidance”; type: functional

T3 sequence (P06276 whole entry): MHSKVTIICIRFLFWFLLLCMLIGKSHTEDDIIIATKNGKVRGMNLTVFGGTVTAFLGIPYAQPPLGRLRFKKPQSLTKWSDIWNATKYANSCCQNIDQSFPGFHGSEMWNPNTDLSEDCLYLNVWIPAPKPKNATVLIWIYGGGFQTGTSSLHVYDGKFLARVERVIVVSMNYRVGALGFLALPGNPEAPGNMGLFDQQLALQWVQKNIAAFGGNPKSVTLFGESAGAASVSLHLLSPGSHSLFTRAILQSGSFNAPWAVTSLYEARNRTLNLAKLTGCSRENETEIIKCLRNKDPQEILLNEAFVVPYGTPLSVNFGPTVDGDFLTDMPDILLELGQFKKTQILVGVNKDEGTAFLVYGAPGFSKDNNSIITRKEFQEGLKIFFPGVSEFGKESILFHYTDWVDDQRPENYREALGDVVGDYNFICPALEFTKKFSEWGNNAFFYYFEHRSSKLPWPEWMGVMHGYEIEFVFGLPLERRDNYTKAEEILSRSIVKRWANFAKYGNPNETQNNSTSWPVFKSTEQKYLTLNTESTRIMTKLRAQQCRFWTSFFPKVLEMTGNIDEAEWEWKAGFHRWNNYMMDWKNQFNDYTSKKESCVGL
T1 sequence (P34972 whole entry): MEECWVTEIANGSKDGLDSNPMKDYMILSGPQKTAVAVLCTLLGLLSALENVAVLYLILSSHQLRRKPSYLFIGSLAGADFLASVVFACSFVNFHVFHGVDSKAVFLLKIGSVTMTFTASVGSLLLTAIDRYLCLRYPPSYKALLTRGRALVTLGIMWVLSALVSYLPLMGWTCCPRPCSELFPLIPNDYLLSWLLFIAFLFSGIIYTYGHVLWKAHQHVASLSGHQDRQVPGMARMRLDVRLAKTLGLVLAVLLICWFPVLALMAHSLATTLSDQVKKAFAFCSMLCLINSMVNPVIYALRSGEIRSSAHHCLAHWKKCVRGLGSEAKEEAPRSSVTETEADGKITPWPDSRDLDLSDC
T2 sequence (P22303 whole entry): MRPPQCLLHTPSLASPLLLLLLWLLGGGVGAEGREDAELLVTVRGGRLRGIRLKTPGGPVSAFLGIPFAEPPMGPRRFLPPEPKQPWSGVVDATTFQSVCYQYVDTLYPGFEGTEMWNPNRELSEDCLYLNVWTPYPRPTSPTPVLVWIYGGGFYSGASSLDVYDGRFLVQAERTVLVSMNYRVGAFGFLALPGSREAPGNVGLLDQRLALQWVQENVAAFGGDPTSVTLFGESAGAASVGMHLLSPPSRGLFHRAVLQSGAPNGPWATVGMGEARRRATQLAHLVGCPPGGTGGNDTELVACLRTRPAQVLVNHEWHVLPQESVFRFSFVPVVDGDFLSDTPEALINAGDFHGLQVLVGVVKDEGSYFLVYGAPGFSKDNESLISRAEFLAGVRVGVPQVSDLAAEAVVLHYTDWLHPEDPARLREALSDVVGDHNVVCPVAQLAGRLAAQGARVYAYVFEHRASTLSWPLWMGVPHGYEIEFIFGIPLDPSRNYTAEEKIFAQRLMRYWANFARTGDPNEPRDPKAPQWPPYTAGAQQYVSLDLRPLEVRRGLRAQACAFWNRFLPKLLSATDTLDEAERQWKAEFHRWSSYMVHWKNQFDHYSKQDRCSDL
Chain of Cannabinoid receptor 1 (Rattus norvegicus) (P20272 whole entry): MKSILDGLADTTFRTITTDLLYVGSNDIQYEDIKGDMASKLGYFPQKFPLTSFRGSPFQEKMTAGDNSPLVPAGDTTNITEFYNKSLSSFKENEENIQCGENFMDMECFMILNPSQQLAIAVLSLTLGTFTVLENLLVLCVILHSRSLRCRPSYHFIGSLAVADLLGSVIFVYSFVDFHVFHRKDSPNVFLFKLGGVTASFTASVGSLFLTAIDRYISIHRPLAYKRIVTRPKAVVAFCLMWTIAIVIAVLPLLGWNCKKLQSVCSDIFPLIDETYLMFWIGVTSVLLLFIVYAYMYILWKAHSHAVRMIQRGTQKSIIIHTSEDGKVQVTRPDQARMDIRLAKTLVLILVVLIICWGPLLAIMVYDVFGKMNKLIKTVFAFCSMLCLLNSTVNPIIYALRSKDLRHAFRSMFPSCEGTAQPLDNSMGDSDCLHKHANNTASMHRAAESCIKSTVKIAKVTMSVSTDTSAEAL

Row | SMILES | Activity [1] [%] | IC50 [2] [nM] | IC50 [3] | IC50 [4] | Activity ([1]; filed as agonist) [%] | other results
1 | CCN(CC)C(=O)c1ccc2c(c1)nc(Cc1ccc(OC(=O)N(C)c3ccccc3)cc1)n2CCC(C)C | 25 | 3850 | 3460 nM | 10100 nM | – | –
2 | CCN(CC)C(=O)c1ccc2c(c1)nc(Cc1ccc(OC(=O)N(C)C)cc1)n2CCC(C)C | < 10 | 780 | 8660 nM | 620 nM | – | EC50 [5]: 244 nM; Emax ([6]; filed as agonist): 42%; EC50 [7]: 82 nM; Emax [8]: 79%
3 | CCOc1ccc(Cc2nc3cc(OC(=O)N(C)CC)ccc3n2CCC(C)C)cc1 | – | 580 | > 25100 nM | 2900 nM | 80 | –
4 | O=c1cc(-c2ccc(O)cc2)oc2cccc(OCc3ccccc3)c12 | – | – | – | – | – | IC50 [9]: 6.9 nM; IC50 [10]: 711 nM
5 | CCOc1ccc(Cc2nc3cc(O)ccc3n2CCC(C)C)cc1 | 19 | 5530 | > 25100 nM | – | – | –
6 | O=c1cc(-c2ccc(O)cc2)oc2ccccc12 | – | – | – | – | – | IC50 [9]: 304 nM; IC50 [10]: 1500 nM
7 | CCN(CC)C(=O)c1ccc2c(c1)nc(Cc1ccccc1)n2CCC(C)C | – | – | > 25100 nM | 50 nM | – | IC50 [9]: 6.4 nM; IC50 [10]: 3800 nM
8 | CCN(CC)C(=O)c1ccc2c(c1)nc(Cc1ccc(OC(=O)NC3CC3)cc1)n2CCC(C)C | 32 | – | > 25100 nM | 70 nM and 79.4 nM | – | Activity ([11]; filed as agonist): 50%
9 | CC(C)(C)OC(=O)NCCOCCOc1ccc(-c2cc(=O)c3ccccc3o2)cc1 | – | – | – | – | – | IC50 [9]: 2 nM; Ki [12]: 4500 nM
10 | CCOc1ccc(Cc2nc3cc(OC(=O)N(C)C)ccc3n2CCC(C)C)cc1 | – | 1190 | > 25100 nM | > 25100 nM | 57 | –
11 | CCNC(=O)Oc1ccc(Cc2nc3cc(C(=O)N(CC)CC)ccc3n2CCC(C)C)cc1 | 37 | – | > 25100 nM | 810 nM | – | Activity [11]: 19%
12 | CCOc1ccc(Cc2nc3cc(OC(=O)N4CCCC4)ccc3n2CCC(C)C)cc1 | – | 1520 | > 25100 nM | 3580 nM and 3160 nM | 49 | –
13 | Cc1c(C(=O)NN2CCCCC2)nn(-c2ccc(Cl)cc2Cl)c1-c1ccc(Cl)cc1 | – | – | – | – | – | Activity [11]: < 10%
14 | CCN(CC)C(=O)c1ccc2c(c1)nc(Cc1ccc(O)cc1)n2CCC(C)C | 10 | 2210 | – | > 25100 nM | – | –
15 | CCOc1ccc(Cc2nc3cc(OC(=O)NC4CC4)ccc3n2CCC(C)C)cc1 | 22 | 1010 | > 25100 nM | 1350 nM | – | –
16 | Cc1cc([N+](=O)[O-])c2oc(-c3ccc(OCCOCCNC(=O)OC(C)(C)C)cc3)cc(=O)c2c1 | – | – | – | – | – | IC50 [9]: 1600 nM; CI [13]: 0.65; CI [14]: 0.49; Ki [12]: 764 nM
17 | CCCN(C)C(=O)Oc1ccc(Cc2nc3cc(C(=O)N(CC)CC)ccc3n2CCC(C)C)cc1 | – | – | > 25100 nM | 1060 nM | 46 | –
18 | CC(C)(C)OC(=O)NCCOCCOc1ccc(-c2cc(=O)c3c(OCc4ccccc4)cccc3o2)cc1 | – | – | – | – | – | IC50 [9]: 1780 nM; Ki [12]: 2000 nM
19 | CCN(CC)C(=O)c1ccc2c(c1)nc(Cc1ccc(OC(=O)NC)cc1)n2CCC(C)C | – | – | – | – | – | Activity [11]: 33%
20 | CCN(CC)C(=O)c1ccc2c(c1)nc(Cc1ccc(OC(=O)NCc3ccccc3)cc1)n2CCC(C)C | < 10 | 11000 | 4500 nM and 3980 nM | 190 nM | – | EC50 [5]: 7710 nM; Emax [6]: 22%
21 | CCN(CC)C(=O)c1ccc2c(c1)nc(Cc1ccc(OC(=O)N(C)Cc3ccccc3)cc1)n2CCC(C)C | – | 2600 | 9010 nM | 390 nM | 51 | –
22 | CCN(CC)C(=O)Oc1ccc(Cc2nc3cc(C(=O)N(CC)CC)ccc3n2CCC(C)C)cc1 | – | – | > 25100 nM | 4220 nM | 43 | Activity [11]: < 10%
23 | CCN(C)C(=O)Oc1ccc(Cc2nc3cc(C(=O)N(CC)CC)ccc3n2CCC(C)C)cc1 | – | 11000 | > 25100 nM | 330 nM | 40 | –
24 | CCOc1ccc(Cc2nc3cc(OC(=O)N4CCC4)ccc3n2CCC(C)C)cc1 | – | 1020 | > 25100 nM | 150 nM | 41 | EC50 [5]: 1300 nM; Emax ([6]; filed as agonist): 68%; EC50 [7]: 42.6 nM
25 | NCCOCCOc1ccc(-c2cc(=O)c3ccccc3o2)cc1 | – | – | – | – | – | IC50 [9]: 13400 nM; Ki [12]: 20 nM
